Measurements from paper PMC8403975 (Bioorganic Chemistry, 2021).
Converted amounts (≈) assume the structure as drawn. “And” between values parts separate entries of the source, which are not always exact repeats. Equal values may be shown once. Read-outs that look alike come from different tables or passages of the source.

Experiments:
[1] = tested on: voltage-dependent Ca2+ channels (isolated rat ileum); assay: Calcium antagonism: relaxation of K+; conditions: K+ (80 mM)-induced contractions of rat ileum; mean ± SD, three independent experiments
[2] = biological target: ACE2:SARS-CoV-2 Spike (RBD) (Homo sapiens, UniProt Q9BYF1); assay: biochemical; assay type: binding
ACE2:SARS-CoV-2 Spike (RBD), sequence (Q9BYF1 18-740): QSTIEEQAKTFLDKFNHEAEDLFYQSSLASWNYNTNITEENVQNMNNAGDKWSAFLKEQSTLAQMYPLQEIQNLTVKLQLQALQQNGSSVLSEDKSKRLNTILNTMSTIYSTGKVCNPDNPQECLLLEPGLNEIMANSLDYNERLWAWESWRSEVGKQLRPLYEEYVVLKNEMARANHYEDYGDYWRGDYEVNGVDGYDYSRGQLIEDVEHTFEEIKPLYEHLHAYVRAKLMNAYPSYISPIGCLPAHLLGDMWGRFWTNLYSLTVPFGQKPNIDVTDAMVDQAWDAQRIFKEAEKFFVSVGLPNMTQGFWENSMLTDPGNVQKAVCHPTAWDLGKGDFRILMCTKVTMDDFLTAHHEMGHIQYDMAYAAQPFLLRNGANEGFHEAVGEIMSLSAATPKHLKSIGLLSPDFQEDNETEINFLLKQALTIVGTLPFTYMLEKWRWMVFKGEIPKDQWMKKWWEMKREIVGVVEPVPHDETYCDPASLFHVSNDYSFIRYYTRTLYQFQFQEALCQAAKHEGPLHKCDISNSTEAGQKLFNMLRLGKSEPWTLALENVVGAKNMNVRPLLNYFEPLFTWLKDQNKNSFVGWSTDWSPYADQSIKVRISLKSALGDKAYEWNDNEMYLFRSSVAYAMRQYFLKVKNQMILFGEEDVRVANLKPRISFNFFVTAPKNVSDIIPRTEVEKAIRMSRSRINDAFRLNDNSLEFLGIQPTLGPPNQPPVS

[3] = tested on: CRP production in LPS-stimulated THP-1 cells; assay: CRP production by LPS-stimulated PMA-differentiated THP-1 cells; assay type: cell-based, human; conditions: compared to LPS (positive control); for Effect on CRP level (in words): compound at 1/4 IC50, LPS 0.5 μg/mL
[4] = tested on: PMA-differentiated THP-1 cells; assay: PMA-differentiated THP-1 cell viability assay; assay type: cell-based; conditions: Homo sapiens, THP-1, 24 h
[5] = tested on: IL-6 production in LPS-stimulated THP-1 cells; assay: IL-6 production by LPS-stimulated PMA-differentiated THP-1 cells; assay type: cell-based, human; conditions: compared to LPS (positive control); for Reduction of IL-6 level: compound at 1/4 IC50, added 2 h prior to LPS 0.5 μg/mL, 24 h
Male Wistar albino rats = assay type: in vivo, rat; conditions: mean arterial BP compared to the control group

Question: How did the IC50 [1] turn out when `CC1=C(C(=O)Nc2ccc(C)cc2)C(c2ccccc2C#N)NC(=S)N1` (stereo not shown) [Compound 7b, 4-(2-cyanophenyl)-6-methyl-N-(4-methylphenyl)-2-thioxo-1,2,3,4-tetrahydropyrimidine-5-carboxamide] was run?
Answer: 22.81 ± 2.46 µg/mL (≈ 62.9 µM)

Question: And the IC50 [2]?
Answer: 10.8 ± 0.75 nM

Question: What about the “Effect on CRP level (in words)” value [3] of the same compound?
Answer: moderate decrease

Question: And the IC50 [4]?
Answer: 222 ± 10.1 µg/mL

Question: And the IC50 ([4]; read-out: IC50 µM)?
Answer: 61 µM

Question: And the “Reduction of IL-6 level” value [5]?
Answer: 47%

Question: Which results are given for `CC1=C(C(=O)Nc2ccccc2)C(c2ccccc2Cl)NC(=S)N1` (stereo not shown) [Compound 8a, 4-(2-chlorophenyl)-6-methyl-N-phenyl-2-thioxo-1,2,3,4-tetrahydropyrimidine-5-carboxamide]?
Answer: IC50 [1]: 20.23 ± 1.79 µg/mL (≈ 56.5 µM); IC50 [2]: 10.6 ± 0.61 nM; IC50 [4]: 464 ± 29.7 µg/mL; IC50 ([4]; read-out: IC50 µM): 125 µM; % reduction in BP (Male Wistar albino rats): up to 29%

Question: For `CC1=C(C(=O)Nc2ccccc2)C(c2ccccc2C#N)NC(=S)N1` (stereo not shown) [Compound 7a, 4-(2-cyanophenyl)-6-methyl-N-phenyl-2-thioxo-1,2,3,4-tetrahydropyrimidine-5-carboxamide], which IC50 [1] is on record?
Answer: 19.65 ± 1.60 µg/mL (≈ 56.4 µM)

Question: What about the IC50 [2] of the same compound?
Answer: 11.6 ± 0.94 nM

Question: What about the IC50 [4] of the same compound?
Answer: 434 ± 32.9 µg/mL

Question: And the IC50 ([4]; read-out: IC50 µM)?
Answer: 123 µM

Question: And the “% reduction in BP” value (Male Wistar albino rats)?
Answer: up to 29%

Question: What about the “Effect on IL-6 level (in words)” value ([5]; compound at 1/4 IC50, LPS 0.5 μg/mL) of the same compound?
Answer: lowest effect

Question: What does the source list for `CCOC(=O)C1=C(C)NC(=S)NC1c1ccccc1Cl` (stereo not shown) [Compound 4b, Ethyl-4-(2-chlorophenyl)-6-methyl-2-thioxo-1,2,3,4-tetrahydropyrimidine-5-carboxylate]?
Answer: IC50 [1]: 24.69 ± 2.35 µg/mL (≈ 79.4 µM); IC50 [2]: ~12.5 nM and 12.5 nM; IC50 [4]: 698 ± 65.6 µg/mL; IC50 ([4]; read-out: IC50 µM): 231 µM

Question: For `CC1=C(C(=O)O)C(c2ccccc2C#N)NC(=S)N1` (stereo not shown) [Compound 5a, 4-(2-cyanophenyl)-6-methyl-2-thioxo-1,2,3,4-tetrahydropyrimidine-5-carboxylic acid], which IC50 [1] is on record?
Answer: 24.37 ± 1.45 µg/mL (≈ 89.2 µM)

Question: And the IC50 [2]?
Answer: 9.8 ± 1.06 nM

Question: What about the “Effect on CRP level (in words)” value [3] of the same compound?
Answer: moderate decrease

Question: And the IC50 [4]?
Answer: 496 ± 38.7 µg/mL

Question: What about the IC50 ([4]; read-out: IC50 µM) of the same compound?
Answer: 118 µM

Question: And the “Reduction of IL-6 level” value [5]?
Answer: about 56%

Question: Which results are given for `CC1=C(C(=O)Nc2ccccc2)C(c2ccccc2Br)NC(=S)N1` (stereo not shown) [Compound 9a, 4-(2-bromophenyl)-6-methyl-N-phenyl-2-thioxo-1,2,3,4-tetrahydropyrimidine-5-carboxamide]?
Answer: IC50 [1]: 21.45 ± 2.55 µg/mL (≈ 53.3 µM); IC50 [2]: 13.7 ± 1.37 nM; Decrease in the level of CRP ([3]; compound at 1/4 IC50, added 2 h prior to LPS 0.5 μg/mL, 24 h): about 95%; IC50 [4]: 484.9 ± 3.24 µg/mL; IC50 ([4]; read-out: IC50 µM): 116 µM; % reduction in BP (Male Wistar albino rats): 27%; Reduction of IL-6 level [5]: ~79%

Question: How did the IC50 [1] turn out when `CCOC(=O)C1=C(C)NC(=S)NC1c1ccccc1Br` (stereo not shown) [Compound 4c, Ethyl-4-(2-bromophenyl)-6-methyl-2-thioxo-1,2,3,4-tetrahydropyrimidine-5-carboxylate] was run?
Answer: 23.62 ± 2.33 µg/mL (≈ 66.5 µM)

Question: What about the IC50 [2] of the same compound?
Answer: 23 ± 1 nM

Question: And the “% reduction in BP” value (Male Wistar albino rats)?
Answer: about 21%

Question: What does the source list for `CC1=C(C(=O)Cl)C(c2ccccc2Cl)NC(=S)N1` (stereo not shown) [Compound 6b, 6-Methyl-4-(2-chlorophenyl)-2-thioxo-1,2,3,4-tetrahydropyrimidine-5-carbonyl chloride]?
Answer: IC50 [1]: 30.78 ± 2.52 µg/mL; IC50 [2]: 23.7 ± 1.35 nM

Question: `CC1=C(C(=O)Nc2ccc(F)cc2)C(c2ccccc2C#N)NC(=S)N1` (stereo not shown) [Compound 7c, 4-(2-cyanophenyl)-6-methyl-N-(4–fluorophenyl)-2-thioxo-1,2,3,4-tetrahydropyrimidine-5-carboxamide] was tested. Which IC50 [1] did it give?
Answer: 22.85 ± 1.11 µg/mL (≈ 62.4 µM)

Question: And the IC50 [2]?
Answer: 20.1 ± 1.1 nM

Question: For `CC1=C(C(=O)Cl)C(c2ccccc2C#N)NC(=S)N1` (stereo not shown) [Compound 6a, 6-Methyl-4-(2-cyanophenyl)-2-thioxo-1,2,3,4-tetrahydropyrimidine-5-carbonyl chloride], which IC50 [1] is on record?
Answer: 26.84 ± 1.51 µg/mL

Question: And the IC50 [2]?
Answer: 17.5 ± 1.31 nM

Question: `CC1=C(C(=O)Nc2ccc(C)cc2)C(c2ccccc2Cl)NC(=S)N1` (stereo not shown) [Compound 8b, 4-(2-chlorophenyl)-6-methyl-N-(4-methylphenyl)-2-thioxo-1,2,3,4-tetrahydropyrimidine-5-carboxamide] was tested. Which IC50 [1] did it give?
Answer: 22.91 ± 2.59 µg/mL (≈ 61.6 µM)

Question: What about the IC50 [2] of the same compound?
Answer: 19.2 ± 1.11 nM

Question: Which IC50 [1] does the source give for `CCOC(=O)C1=C(C)NC(=S)NC1c1ccccc1C#N` (stereo not shown) [Compound 4a, Ethyl-4-(2-cyanophenyl)-6-methyl-2-thioxo-1,2,3,4-tetrahydropyrimidine-5-carboxylate] here?
Answer: 23.07 ± 1.53 µg/mL (≈ 76.6 µM)

Question: And the IC50 [2]?
Answer: 8.5 ± 0.92 nM

Question: What about the IC50 [4] of the same compound?
Answer: 1550 ± 134 µg/mL

Question: And the IC50 ([4]; read-out: IC50 µM)?
Answer: 533 µM

Question: Which IC50 [1] does the source give for `CC1=C(C(=O)O)C(c2ccccc2Cl)NC(=S)N1` (stereo not shown) [Compound 5b, 4-(2-chlorophenyl)-6-Methyl-2-thioxo-1,2,3,4-tetrahydropyrimidine-5-carboxylic acid] here?
Answer: 25.25 ± 1.39 µg/mL (≈ 89.3 µM)

Question: And the IC50 [2]?
Answer: ~12.5 nM and 12.5 nM

Question: And the IC50 [4]?
Answer: 967 ± 79.2 µg/mL

Question: What about the IC50 ([4]; read-out: IC50 µM) of the same compound?
Answer: 342 µM

Question: Which results are given for `CC1=C(C(=O)Cl)C(c2ccccc2Br)NC(=S)N1` (stereo not shown) [Compound 6c, 6-Methyl-4-(2-bromophenyl)-2-thioxo-1,2,3,4-tetrahydropyrimidine-5-carbonyl chloride]?
Answer: IC50 [1]: 29.73 ± 2.44 µg/mL; IC50 [2]: 16.5 ± 1.08 nM
